From patent US4335249A, “Herbicidal diphenyl ethers, sulfides, sulfoxides and sulfones” (Rohm and Haas Company, priority 1976, dated 1982)

Experiments:
Format in all cases: in vivo
[1] = system: tomato (Lycopersicon esculentum); experiment: Preemergence herbicidal activity, tomato; details: Pre, 2 lb/A; for pest or weed control at 2241.7 g/ha: Solanum lycopersicum, pre-emergence, 336 h
Method: (§1) Using the procedure described below, compounds of the invention are evaluated for control of several of the following plant species:
(§2) The following est procedure is employed. Seeds of selected crops and weeds are planted in soil in flats. For preemergence tests, the flats are treated with the test compound immediately after the planting. For postemergence tests, the seeds are allowed to germinate, and after two weeks the flats are treated with the test compound. The compound to be evaluated is dissolved in acetone, diluted with water, and sprayed over the flats using a carrier volume equivalent to 50 gallons per acre at the rate of application (pounds per acre, lb/A.) specified in the tables. About two weeks after the application of the test compound, the state of growth of the plants is observed and the phytotoxic effect of the compound is evaluated. Tables III and IV give the average percent control achieved by test compounds in terms of the percent of the plants which are killed by the compounds.

[2] = system: morningglory (Ipomoca spp.); experiment: Postemergence herbicidal activity, morningglory; details: 2 lb/A; for % control, Morningglory: Post; for pest or weed control at 2241.7 g/ha: Ipomoea, post-emergence, 336 h
Method: as §1, §2

[3] = system: barnyardgrass (Echinochloa crusgalli); experiment: Preemergence herbicidal activity, barnyardgrass; details: Pre, 2 lb/A; for pest or weed control at 2241.7 g/ha: Echinochloa crus-galli, pre-emergence, 336 h
Method: as §1
(§3) The following est procedure is employed. Seeds of selected crops and weeds are planted in soil in flats. For preemergence tests, the flats are treated with the test compound immediately after the planting. For postemergence tests, the seeds are allowed to germinate, and after two weeks the flats are treated with the test compound. The compound to be evaluated is dissolved in acetone, diluted with water, and sprayed over the flats using a carrier volume equivalent to 50 gallons per acre at the rate of application (pounds per acre, lb/A.) specified in the tables.

[4] = system: morningglory (Ipomoca spp.); experiment: Preemergence herbicidal activity, morningglory; details: 2 lb/A; for % control, Morningglory: Pre; for pest or weed control at 2241.7 g/ha: Ipomoea, pre-emergence, 336 h
Method: as §1, §2

[5] = system: foxtail (Setaria spp.); experiment: Preemergence herbicidal activity, foxtail; details: Pre, 2 lb/A; for pest or weed control at 2241.7 g/ha: Setaria, pre-emergence, 336 h
Method: as §1, §2

[6] = system: marigold (Tagetes spp.); experiment: Postemergence herbicidal activity, marigold; details: 2 lb/A; for % control, Marigold: Post; for pest or weed control at 2241.7 g/ha: post-emergence, 336 h
Method: as §1, §2

[7] = system: wild oats (Avena fatua); experiment: Postemergence herbicidal activity, wild oats; details: Post, 2 lb/A; for pest or weed control at 2241.7 g/ha: Avena fatua, post-emergence, 336 h, read-out: % control, Wild oat
Method: as §1, §2

[8] = system: velvetleaf (Abutilon theophrasti); experiment: Postemergence herbicidal activity, velvetleaf; details: 2 lb/A; for % control, Velvetleaf: Post; for pest or weed control at 2241.7 g/ha: Abutilon theophrasti, post-emergence, 336 h
Method: as §1, §3

[9] = system: velvetleaf (Abutilon theophrasti); experiment: Preemergence herbicidal activity, velvetleaf; details: Pre, 2 lb/A; for pest or weed control at 2241.7 g/ha: Abutilon theophrasti, pre-emergence, 336 h
Method: as §1, §2

[10] = system: yellow nutsedge (Cyperus esculentus); experiment: Postemergence herbicidal activity, yellow nutsedge; details: 2 lb/A; for % control, Nutsedge: Post; for pest or weed control at 2241.7 g/ha: Cyperus, post-emergence, 336 h
Method: as §1, §2

[11] = system: downybrome (Bromus tectorum); experiment: Preemergence herbicidal activity, downybrome; details: Pre, 2 lb/A; for pest or weed control at 2241.7 g/ha: Bromus tectorum, pre-emergence, 336 h
Method: as §1, §2

[12] = system: downybrome (Bromus tectorum); experiment: Postemergence herbicidal activity, downybrome; details: Post, 2 lb/A; for pest or weed control at 2241.7 g/ha: Bromus tectorum, post-emergence, 336 h
Method: as §1, §2

[13] = system: cocklebur (Xanthium pensylvanicum); experiment: Preemergence herbicidal activity, cocklebur; details: 2 lb/A; for % control, Cocklebur: Pre; for pest or weed control at 2241.7 g/ha: Xanthium strumarium, pre-emergence, 336 h
Method: as §1, §2

[14] = system: foxtail (Setaria spp.); experiment: Postemergence herbicidal activity, foxtail; details: Post, 2 lb/A; for pest or weed control at 2241.7 g/ha: Setaria, post-emergence, 336 h
Method: as §1, §2

[15] = system: cocklebur (Xanthium pensylvanicum); experiment: Postemergence herbicidal activity, cocklebur; details: 2 lb/A; for % control, Cocklebur: Post; for pest or weed control at 2241.7 g/ha: Xanthium strumarium, post-emergence, 336 h
Method: as §1, §2

[16] = system: yellow nutsedge (Cyperus esculentus); experiment: Preemergence herbicidal activity, yellow nutsedge; details: 2 lb/A; for % control, Nutsedge: Pre; for pest or weed control at 2241.7 g/ha: Cyperus, pre-emergence, 336 h
Method: as §1, §2

[17] = system: wild oats (Avena fatua); experiment: Preemergence herbicidal activity, wild oats; details: Pre, 2 lb/A; for pest or weed control at 2241.7 g/ha: Avena fatua, pre-emergence, 336 h, read-out: % control, Wild oat
Method: as §1, §2

[18] = system: barnyardgrass (Echinochloa crusgalli); experiment: Postemergence herbicidal activity, barnyardgrass; details: Post, 2 lb/A; for pest or weed control at 2241.7 g/ha: Echinochloa crus-galli, post-emergence, 336 h
Method: as §1, §3

[19] = system: marigold (Tagetes spp.); experiment: Preemergence herbicidal activity, marigold; details: 2 lb/A; for % control, Marigold: Pre; for pest or weed control at 2241.7 g/ha: pre-emergence, 336 h
Method: as §1, §2

[20] = system: tomato (Lycopersicon esculentum); experiment: Postemergence herbicidal activity, tomato; details: Post, 2 lb/A; for pest or weed control at 2241.7 g/ha: Solanum lycopersicum, post-emergence, 336 h
Method: as §1, §2

Row | SMILES | % control, Tomato [1] [%] | % control, Morningglory [2] [%] | % control, Barnyardgrass [3] [%] | % control, Morningglory [4] [%] | % control, Foxtail [5] [%] | % control, Marigold [6] [%] | % control, Wild oat [7] [%] | % control, Velvetleaf [8] [%] | % control, Velvetleaf [9] [%] | % control, Nutsedge [10] [%] | % control, Downybrome [11] [%] | % control, Downybrome [12] [%] | % control, Cocklebur [13] [%] | % control, Foxtail [14] [%] | % control, Cocklebur [15] [%] | % control, Nutsedge [16] [%] | % control, Wild oat [17] [%] | % control, Barnyardgrass [18] [%] | % control, Marigold [19] [%] | % control, Tomato [20] [%] | also measured
1 | CC(Oc1ccc(Oc2ccc(C(F)(F)F)cc2Cl)cc1)C(=O)O (stereo not drawn) [Example 14, Sodium 2-[4-(2-chloro-4-trifluoromethylphenoxy)phenoxy] propionate] | 0 | 0 | 100 | 0 | 100 | 0 | 80 | 0 | 0 | 0 | 50 | 20 | 0 | 95 | 0 | 0 | 40 | 100 | 0 | 0 | 
2 | CC(Oc1ccc(Oc2ccc(C(F)(F)F)cc2Cl)cc1)C(=O)O (stereo not drawn) [Example 15] | 0 | 0 | 100 | 40 | 100 | 0 | 20 | 0 | 0 | 0 | 0 | 0 | 0 | 90 | 0 | 0 | 0 |  | 0 | 0 | pest or weed control at 2241.7 g/ha [18]: 90%
3 | CC(Oc1ccc(Oc2ccc(C(F)(F)F)cc2Cl)cc1)C(=O)O (stereo not drawn) [Example 16] | 0 | 0 | 100 | 0 | 100 | 0 | 80 | 0 | 0 | 0 | 70 | 0 | 0 | 90 | 0 | 0 | 70 | 100 | 0 | 0 | 
4 | CC(Oc1ccc(Oc2ccc(C(F)(F)F)cc2Cl)cc1)C(=O)O (stereo not drawn) [Example 17] | 0 | 0 | 100 | 0 | 100 | 0 | 80 | 0 | 0 | 0 | 30 | 0 | 0 | 90 | 0 | 0 | 95 | 99 | 0 | 0 | 
5 | CC(Oc1ccc(Oc2ccc(C(F)(F)F)cc2Cl)cc1)C(N)=O (stereo not drawn) [Example 18] |  |  |  |  |  |  |  |  |  |  |  |  |  |  |  |  |  |  |  |  | pest or weed control at 2241.7 g/ha [1]: 0%; pest or weed control at 2241.7 g/ha [2]: 0%; pest or weed control at 2241.7 g/ha [3]: 100%; pest or weed control at 2241.7 g/ha [4]: 0%; pest or weed control at 2241.7 g/ha [5]: 100%; pest or weed control at 2241.7 g/ha [6]: 0%; pest or weed control at 2241.7 g/ha [7]: 95%; pest or weed control at 2241.7 g/ha [8]: 0%; pest or weed control at 2241.7 g/ha [9]: 0%; pest or weed control at 2241.7 g/ha [10]: 0%; pest or weed control at 2241.7 g/ha [11]: 95%; pest or weed control at 2241.7 g/ha [12]: 40%; pest or weed control at 2241.7 g/ha [13]: 0%; pest or weed control at 2241.7 g/ha [14]: 99%; pest or weed control at 2241.7 g/ha [15]: 0%; pest or weed control at 2241.7 g/ha [16]: 0%; pest or weed control at 2241.7 g/ha [17]: 0%; pest or weed control at 2241.7 g/ha [18]: 99%; pest or weed control at 2241.7 g/ha [19]: 0%; pest or weed control at 2241.7 g/ha [20]: 0%
6 | CC(C#N)Oc1ccc(Oc2ccc(C(F)(F)F)cc2Cl)cc1 (stereo not drawn) [Example 19, 2-[4-(2-chloro-4-trifluoromethylphenoxy)phenoxy] propionitrile] |  |  |  |  |  |  |  |  |  |  |  |  |  |  |  |  |  |  |  |  | pest or weed control at 2241.7 g/ha [1]: 0%; pest or weed control at 2241.7 g/ha [2]: 0%; pest or weed control at 2241.7 g/ha [3]: 100%; pest or weed control at 2241.7 g/ha [4]: 0%; pest or weed control at 2241.7 g/ha [5]: 100%; pest or weed control at 2241.7 g/ha [6]: 0%; pest or weed control at 2241.7 g/ha [7]: 90%; pest or weed control at 2241.7 g/ha [8]: 0%; pest or weed control at 2241.7 g/ha [9]: 0%; pest or weed control at 2241.7 g/ha [10]: 0%; pest or weed control at 2241.7 g/ha [11]: 20%; pest or weed control at 2241.7 g/ha [12]: 30%; pest or weed control at 2241.7 g/ha [13]: 0%; pest or weed control at 2241.7 g/ha [14]: 99%; pest or weed control at 2241.7 g/ha [15]: 0%; pest or weed control at 2241.7 g/ha [16]: 0%; pest or weed control at 2241.7 g/ha [17]: 30%; pest or weed control at 2241.7 g/ha [18]: 99%; pest or weed control at 2241.7 g/ha [19]: 0%; pest or weed control at 2241.7 g/ha [20]: 0%
